Tests used:
Acetylcholinesterase = Acetylcholinesterase (Homo sapiens, UniProt P22303); assay type: functional
[1] = target: T1, Retinoic acid receptor alpha (Homo sapiens, UniProt P10276); assay type: functional, cell-based
T1 sequence (P10276 whole entry): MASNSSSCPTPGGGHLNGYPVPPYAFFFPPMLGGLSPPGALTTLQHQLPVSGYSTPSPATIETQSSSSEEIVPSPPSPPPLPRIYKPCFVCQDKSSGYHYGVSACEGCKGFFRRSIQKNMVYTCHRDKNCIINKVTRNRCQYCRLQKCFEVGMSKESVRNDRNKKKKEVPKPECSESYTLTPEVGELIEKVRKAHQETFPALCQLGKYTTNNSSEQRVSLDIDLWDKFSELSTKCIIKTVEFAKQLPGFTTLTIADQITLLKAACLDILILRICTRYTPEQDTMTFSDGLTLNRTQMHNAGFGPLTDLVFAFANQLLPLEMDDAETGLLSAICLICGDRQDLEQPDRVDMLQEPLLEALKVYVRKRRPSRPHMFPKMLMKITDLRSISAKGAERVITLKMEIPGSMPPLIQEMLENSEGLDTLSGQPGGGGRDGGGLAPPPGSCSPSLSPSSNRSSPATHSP

[2] = target: T2, Nuclear receptor subfamily 1 group I member 3 (Homo sapiens, UniProt Q14994); assay type: functional
T2 sequence (Q14994 whole entry): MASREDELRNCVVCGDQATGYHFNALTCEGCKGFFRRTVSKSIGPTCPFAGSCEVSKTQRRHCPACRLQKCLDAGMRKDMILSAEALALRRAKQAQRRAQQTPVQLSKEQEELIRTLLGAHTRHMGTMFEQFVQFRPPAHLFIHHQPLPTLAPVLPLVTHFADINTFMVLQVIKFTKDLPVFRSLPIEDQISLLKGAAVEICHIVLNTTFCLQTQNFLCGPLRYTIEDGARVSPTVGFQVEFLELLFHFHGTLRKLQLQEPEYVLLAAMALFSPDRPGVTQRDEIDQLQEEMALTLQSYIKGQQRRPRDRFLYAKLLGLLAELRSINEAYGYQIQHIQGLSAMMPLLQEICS

[3] = target: T3, Retinoic acid receptor beta (Homo sapiens, UniProt P10826); assay type: functional, cell-based
T3 sequence (P10826 whole entry): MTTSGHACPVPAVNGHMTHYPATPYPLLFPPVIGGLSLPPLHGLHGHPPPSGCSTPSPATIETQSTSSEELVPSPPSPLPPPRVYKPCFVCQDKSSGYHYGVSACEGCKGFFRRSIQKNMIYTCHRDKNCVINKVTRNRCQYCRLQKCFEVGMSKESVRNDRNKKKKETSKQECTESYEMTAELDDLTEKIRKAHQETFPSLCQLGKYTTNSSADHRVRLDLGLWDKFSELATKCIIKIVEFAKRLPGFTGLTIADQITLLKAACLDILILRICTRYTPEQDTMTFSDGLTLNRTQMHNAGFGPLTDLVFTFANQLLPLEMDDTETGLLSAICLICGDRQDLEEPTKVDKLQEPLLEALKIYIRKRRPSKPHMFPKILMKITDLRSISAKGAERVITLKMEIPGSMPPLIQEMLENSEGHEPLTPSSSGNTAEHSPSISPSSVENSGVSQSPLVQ

[4] = target: T4, Retinoic acid receptor gamma (Homo sapiens, UniProt P13631); assay type: functional, cell-based
T4 sequence (P13631 whole entry): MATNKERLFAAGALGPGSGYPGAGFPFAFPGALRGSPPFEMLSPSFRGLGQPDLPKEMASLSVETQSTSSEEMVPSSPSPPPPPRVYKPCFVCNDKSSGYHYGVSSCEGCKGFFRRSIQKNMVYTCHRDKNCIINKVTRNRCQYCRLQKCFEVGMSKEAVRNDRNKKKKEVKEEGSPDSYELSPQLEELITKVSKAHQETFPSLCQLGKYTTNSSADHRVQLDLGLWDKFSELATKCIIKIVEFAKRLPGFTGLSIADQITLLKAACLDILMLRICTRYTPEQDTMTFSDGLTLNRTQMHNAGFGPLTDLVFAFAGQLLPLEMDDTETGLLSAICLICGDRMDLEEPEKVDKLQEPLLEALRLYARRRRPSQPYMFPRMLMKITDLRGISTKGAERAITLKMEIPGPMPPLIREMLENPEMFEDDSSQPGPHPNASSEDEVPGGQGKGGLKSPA

[5] = target: T5, Prostaglandin G/H synthase 1 (Rattus norvegicus, UniProt Q63921); assay type: functional
T5 sequence (Q63921 whole entry): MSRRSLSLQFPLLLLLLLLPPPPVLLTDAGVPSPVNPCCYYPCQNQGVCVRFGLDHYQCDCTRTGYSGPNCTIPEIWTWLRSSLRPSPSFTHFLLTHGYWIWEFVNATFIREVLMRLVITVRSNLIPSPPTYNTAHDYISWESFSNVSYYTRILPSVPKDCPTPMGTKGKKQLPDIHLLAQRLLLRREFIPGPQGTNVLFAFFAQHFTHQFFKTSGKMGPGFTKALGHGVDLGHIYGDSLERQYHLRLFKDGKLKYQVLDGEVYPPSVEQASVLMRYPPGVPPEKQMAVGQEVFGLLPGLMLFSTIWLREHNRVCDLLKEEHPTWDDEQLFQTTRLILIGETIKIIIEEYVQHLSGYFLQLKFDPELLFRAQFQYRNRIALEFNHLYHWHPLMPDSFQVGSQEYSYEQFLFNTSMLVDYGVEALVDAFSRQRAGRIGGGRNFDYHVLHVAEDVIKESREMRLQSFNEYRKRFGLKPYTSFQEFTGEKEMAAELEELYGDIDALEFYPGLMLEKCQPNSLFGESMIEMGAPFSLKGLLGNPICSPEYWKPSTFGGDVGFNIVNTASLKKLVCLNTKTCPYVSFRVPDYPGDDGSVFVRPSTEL

[6] = target: T6, Peroxisome proliferator-activated receptor alpha (Homo sapiens, UniProt Q07869); assay type: functional
T6 sequence (Q07869 whole entry): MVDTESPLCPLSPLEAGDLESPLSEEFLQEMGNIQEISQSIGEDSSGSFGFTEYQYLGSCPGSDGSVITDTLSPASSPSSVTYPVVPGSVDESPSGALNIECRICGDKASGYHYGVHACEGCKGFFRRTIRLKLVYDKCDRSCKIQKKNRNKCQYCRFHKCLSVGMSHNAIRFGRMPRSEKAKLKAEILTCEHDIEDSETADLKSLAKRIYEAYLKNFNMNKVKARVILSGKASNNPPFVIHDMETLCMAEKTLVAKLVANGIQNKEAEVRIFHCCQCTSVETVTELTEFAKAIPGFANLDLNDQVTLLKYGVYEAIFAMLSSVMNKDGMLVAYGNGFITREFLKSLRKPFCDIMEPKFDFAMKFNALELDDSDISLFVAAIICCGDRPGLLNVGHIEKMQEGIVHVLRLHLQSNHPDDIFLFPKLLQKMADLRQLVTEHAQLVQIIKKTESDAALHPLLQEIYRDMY

[7] = target: Rod cGMP-specific 3',5'-cyclic phosphodiesterase subunit alpha (Homo sapiens, UniProt P16499); assay type: functional
Rod cGMP-specific 3',5'-cyclic phosphodiesterase subunit alpha, sequence (P16499 whole entry): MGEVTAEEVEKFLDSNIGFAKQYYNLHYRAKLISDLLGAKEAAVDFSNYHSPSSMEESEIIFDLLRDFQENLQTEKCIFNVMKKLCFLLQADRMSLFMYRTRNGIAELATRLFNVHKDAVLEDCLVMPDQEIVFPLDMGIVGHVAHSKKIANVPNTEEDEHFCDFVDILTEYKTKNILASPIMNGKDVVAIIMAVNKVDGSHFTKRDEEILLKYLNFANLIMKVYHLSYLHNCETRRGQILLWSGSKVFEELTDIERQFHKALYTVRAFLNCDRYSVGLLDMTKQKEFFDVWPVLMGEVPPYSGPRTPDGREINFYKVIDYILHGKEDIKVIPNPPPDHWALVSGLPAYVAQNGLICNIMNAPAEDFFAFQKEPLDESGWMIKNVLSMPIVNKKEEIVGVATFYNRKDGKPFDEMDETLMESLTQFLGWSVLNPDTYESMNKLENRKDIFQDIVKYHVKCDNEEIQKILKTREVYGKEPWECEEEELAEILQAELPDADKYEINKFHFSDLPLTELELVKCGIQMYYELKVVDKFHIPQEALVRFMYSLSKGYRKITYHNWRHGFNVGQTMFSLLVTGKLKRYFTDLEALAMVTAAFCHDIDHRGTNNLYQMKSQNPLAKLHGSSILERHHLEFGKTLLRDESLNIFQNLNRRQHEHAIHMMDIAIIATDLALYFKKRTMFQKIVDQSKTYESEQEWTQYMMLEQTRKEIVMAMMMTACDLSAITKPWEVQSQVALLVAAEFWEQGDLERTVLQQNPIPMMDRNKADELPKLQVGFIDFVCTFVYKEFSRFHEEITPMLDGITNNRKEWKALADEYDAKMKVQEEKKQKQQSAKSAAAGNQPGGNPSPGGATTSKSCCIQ
Further: assay procedure not described here.

Acetylcholinesterase, sequence (P22303 whole entry): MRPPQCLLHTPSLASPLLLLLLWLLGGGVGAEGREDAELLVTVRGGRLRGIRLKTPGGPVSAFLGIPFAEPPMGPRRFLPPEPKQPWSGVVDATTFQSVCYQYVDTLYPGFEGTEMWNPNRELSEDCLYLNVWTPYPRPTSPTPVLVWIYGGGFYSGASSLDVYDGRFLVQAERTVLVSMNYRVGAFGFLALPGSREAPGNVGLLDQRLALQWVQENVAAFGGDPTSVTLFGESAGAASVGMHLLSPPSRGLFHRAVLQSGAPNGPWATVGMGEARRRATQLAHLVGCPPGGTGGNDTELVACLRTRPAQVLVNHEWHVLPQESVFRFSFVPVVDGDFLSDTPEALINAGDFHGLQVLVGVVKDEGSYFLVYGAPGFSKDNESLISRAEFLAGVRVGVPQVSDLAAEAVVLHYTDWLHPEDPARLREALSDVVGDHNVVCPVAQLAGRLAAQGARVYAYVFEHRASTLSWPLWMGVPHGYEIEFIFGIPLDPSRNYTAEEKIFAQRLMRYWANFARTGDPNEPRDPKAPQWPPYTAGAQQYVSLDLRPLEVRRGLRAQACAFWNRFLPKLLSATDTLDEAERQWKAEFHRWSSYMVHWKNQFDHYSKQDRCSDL

C[C@H](CCC(=O)O)[C@H]1CC[C@H]2[C@@H]3[C@@H](O)C[C@@H]4C[C@H](O)CC[C@]4(C)[C@H]3CC[C@]12C [URSODIOL]
AC50 (Acetylcholinesterase): > 30 µM

CC(C(=O)O)c1ccc2c(c1)[nH]c1ccc(Cl)cc12 (configuration not stated) [CARPROFEN]
AC50 [1]: > 30 µM | AC50 [2]: > 30 µM | AC50 [3]: > 30 µM | AC50 [4]: > 30 µM

COc1ccccc1OCCNCC(O)COc1cccc2[nH]c3ccccc3c12 (configuration not stated) [CARVEDILOL]
AC50 [5]: > 30 µM

CC(C)Cc1ccc(C(C)C(=O)O)cc1 (configuration not stated) [IBUPROFEN]
AC50 [6]: > 30 µM

C=CC[C@@H]1/C=C(\C)C[C@H](C)C[C@H](OC)[C@H]2O[C@@](O)(C(=O)C(=O)N3CCCC[C@H]3C(=O)O[C@H](/C(C)=C/[C@@H]3CC[C@@H](O)[C@H](OC)C3)[C@H](C)[C@@H](O)CC1=O)[C@H](C)C[C@@H]2OC [TACROLIMUS ANHYDROUS]
AC50 (Acetylcholinesterase): > 30 µM

Cc1onc(-c2ccccc2)c1-c1ccc(S(N)(=O)=O)cc1 [VALDECOXIB]
AC50 [7]: > 10 µM | AC50 [5]: > 30 µM

CCN(CC)CCNC(=O)c1c(C)[nH]c(/C=C2\C(=O)Nc3ccc(F)cc32)c1C [SUNITINIB]
AC50 [1]: > 10 µM | AC50 [2]: > 30 µM | AC50 [3]: > 3 µM | AC50 [4]: > 10 µM

COc1ccccc1Oc1c(NS(=O)(=O)c2ccc(C(C)(C)C)cc2)nc(-c2ncccn2)nc1OCCO [BOSENTAN]
AC50 [2]: 2.1 µM | AC50 [6]: > 30 µM

COc1cc2nccc(Oc3ccc(NC(=O)C4(C(=O)Nc5ccc(F)cc5)CC4)cc3)c2cc1OC [CABOZANTINIB]
AC50 (Acetylcholinesterase): > 30 µM

COc1ccc(CC2c3cc(OC)c(OC)cc3CC[N+]2(C)CCC(=O)OCCCCCOC(=O)CC[N+]2(C)CCc3cc(OC)c(OC)cc3C2Cc2ccc(OC)c(OC)c2)cc1OC (configuration not stated)
AC50 [5]: 18.9 µM

CCN1CCN(Cc2ccc(Nc3ncc(F)c(-c4cc(F)c5nc(C)n(C(C)C)c5c4)n3)nc2)CC1 [ABEMACICLIB]
AC50 (Acetylcholinesterase): > 30 µM

N[C@@H](CC(=O)N1CCn2c(nnc2C(F)(F)F)C1)Cc1cc(F)c(F)cc1F [SITAGLIPTIN]
AC50 [7]: > 10 µM

CC(C)N(CCC(C(N)=O)(c1ccccc1)c1ccccn1)C(C)C (configuration not stated) [DISOPYRAMIDE]
AC50 [5]: 29.7 µM

CO[C@H]1/C=C/O[C@@]2(C)Oc3c(C)c(O)c4c(O)c(c(/C=N/N5CCN(C)CC5)c(O)c4c3C2=O)NC(=O)/C(C)=C\C=C\[C@H](C)[C@H](O)[C@@H](C)[C@@H](O)[C@@H](C)[C@H](OC(C)=O)[C@@H]1C [RIFAMPIN]
AC50 [2]: > 30 µM

— ChEMBL document CHEMBL5291721, “A preclinical secondary pharmacology resource illuminates target-adverse drug reaction associations of marketed drugs” (Nat Commun, 2023)
